Assay results as given in patent publication US7390836B2, “Small molecules used to increase cell death” (priority 1999, dated 2008).

Assays:
HeLa cells, Jurkat cells = test: Cytochrome c release and mitochondrial membrane potential; format: cell-based; conditions: immunostaining and fractionation, 48 hr
Description: FIG. 6D is a set of images of cells showing cytochrome c release induced by BH3Is. HeLa cells were treated with 100 μM BH3I-1 for 48 hr and were then stained with Hoechst (a) or cytochrome c antibody (b). The arrows indicate the position of an apoptotic cell.
FIG. 6E is an image of a Western blot analysis of cytochrome c release from Jurkat cells treated with BH3I-1 (100 μM) or BH3I-2 (50 μM) for 48 hr. Cells were fractionated and soluble (S) and heavy membrane (M) fractions were subjected to Western blot analysis using cytochrome c (Pharmingen) and VDAC (Calbiochem) antibodies.
Next, the role of BH3 Is in inducing the release of cytochrome c from mitochondria was examined.

Bcl-xL = biological target: T1, Bcl-xL (Homo sapiens, UniProt Q07817, DEL45-84); test: NMR titration of Bcl-xL; format: binding; conditions: for relative order of affinities, NMR titrations: rank order
T1 construct: His6 (C); made in house
T1 sequence (Q07817 with tags, fused parts or gaps DEL45-84 limits assumed): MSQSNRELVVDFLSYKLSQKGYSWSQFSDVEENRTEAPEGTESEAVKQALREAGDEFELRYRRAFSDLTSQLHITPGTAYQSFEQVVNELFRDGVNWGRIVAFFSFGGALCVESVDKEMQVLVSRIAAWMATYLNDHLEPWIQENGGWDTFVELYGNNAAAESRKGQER
Description: To verify this conclusion, NMR titrations of Bcl-xL with BH3I-1s were performed and their Ki values were determined (FIG. 4). […] The BH3I-1s Ki values obtained by the NMR approach agree with the results of both pulldown and SELDI analyses. Therefore, the order of affinities of BH3Is is: BH312′>BH3I-2>BH3I-2″>BH3I-1>BH3I-1′>BH3I-1″>BH3I-1′″.
NMR titration was used to examine whether BH3Iinteracts with the binding pocket of Bcl-xL in a manner similar to Bak BH3 peptide (Hajduk et al., Science 278:497-499, 1997).
Next, changes in Bcl-xL structure upon addition of increasing amounts of BH3Is were determined. Each of the BH3Is induced significant changes in the Bcl-xL structure. The compounds targeted the hydrophobic cleft formed by the BH1, BH2, and BH3 domains on the surface of the Bcl-xL protein, and primarily bound to the area formed by BH1 and BH2 domains.

[1] = tested on: HeLa cells that stably overexpress human BCL-XL; test: Cell death by ATP levels in Bcl-xL overexpressing cells after zVAD-fmk pretreatment; format: cell-based; conditions: zVAD-fmk 100 μM pretreatment, 48 or 72 hours
Description: In another study, HeLa cells that stably overexpress human BCL-XL, and are therefore more resistant to cell death, were pretreated with zVAD-fmk (100 μM) for 1 hour, as described above. Each of the chemical compounds BH3I-1, BH3I-1′, and BH3I-2 from the ChemBridge library was then added to the media of the cells of three separate samples. After 48 or 72 hours of exposure of the cells to zVAD-fmk and the chemical compound, the level of cell death was measured for each sample, by measuring cellular ATP levels.

FL5.12/Bcl-xL cells = test: Cell death upon IL-3 deprivation in Bcl-xL overexpressing cells; format: cell-based; conditions: PI staining
Excerpt: This effect could be overcome by a higher dose of BH3Is (FIG. 9E). Inactivation of Bcl-xL by BH3Is in FL5.12/Bcl-xL cells was detected as an increase in cell death following IL-3 deprivation.

HeLa cells = test: Cell death by ATP levels after zVAD-fmk pretreatment; format: cell-based; conditions: zVAD-fmk 100 μM pretreatment, 48 or 72 hours
Description: The conditions under which cell death occurs in the presence of BH3Is were further evaluated. HeLa cells were pretreated with zVAD-fmk (100 μM) for 1 hour. The purpose of such a treatment was to inhibit the intracellular pathways mediating cell death by apoptosis. Each of the chemical compounds BH3I-1, BH3I-1′, or BH3I-2 was then added to the media of the cells of three separate samples. After 48 or 72 hours of exposure of the cells to zVAD-fmk and the chemical compound, the level of cell death was measured for each sample, by measuring cellular ATP levels.

[2] = biological target: T2, U2AF35 / U2AF65 interaction (Homo sapiens, UniProt Q01081); test: Pulldown of splicing factors (specificity control); format: binding; conditions: selectivity control
T2 construct: made in house; host or cells: U2AF65: TNT wheat germ lysate (Promega)
T2 sequence (Q01081 1-240): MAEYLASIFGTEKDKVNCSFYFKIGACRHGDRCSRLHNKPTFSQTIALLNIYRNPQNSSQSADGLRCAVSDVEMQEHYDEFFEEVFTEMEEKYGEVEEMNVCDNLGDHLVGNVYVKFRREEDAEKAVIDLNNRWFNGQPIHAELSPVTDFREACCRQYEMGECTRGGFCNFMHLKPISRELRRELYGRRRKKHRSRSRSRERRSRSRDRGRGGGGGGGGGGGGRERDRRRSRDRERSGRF
Description: Next, it was determined whether BH3Is could disrupt the heterodimerization of Bcl-xL with pro-apoptotic proteins from the Bcl-2 family, such as truncated Bid (tBid). Truncation of Bid by caspase-8 activates Bid and dramatically increases its affinity towards anti-apoptotic Bcl-2 family members (Li et al., Cell 94:491-501, 1998). To perform this study, in vitro translation of tBid or U2AF^65 (control) was performed using TNT® Coupled Reticulocyte and Wheat Germ Lysate Systems (Promega) respectively. Bcl-xL, U2AF^35 (control) or corresponding amounts of original Ni-NTA agarose beads (blank) were pre-incubated with the BH3 inhibitors or peptide in 100 μl of PBS for 30 min at 25° C. Then 1 μl of ^35S-labeled tBID or U2AF^65 was added and incubation was continued for 2 hr at 4° C. The samples were subjected to SDS-PAGE, coomassie blue staining and autoradiography.
To determine the specificity of BH3Is, their ability to inhibit other protein-protein interactions was tested using the pulldown assay described above and the splicing factors U2AF^35 and U2AF^65 (Zhang et al, Proc. Natl. Acad. Sci. USA 89:8769-73, 1992). […] BH3Is (80 μM) also had no effect on the interaction between the Apaf-1 CARD domain fragment and caspase-9 in the SELDI assay.

Structure (SMILES)	cytochrome c release (HeLa cells, Jurkat cells)	NOE magnetization transfer to Bcl-xL residues Y65 and F107 (Bcl-xL)	NMR derived Ki value, compared (Bcl-xL; compared with fluorescence polarization Ki of BH3I-2)	relative order of affinities, NMR titrations (Bcl-xL)	cellular ATP levels [1]	cytotoxicity upon IL-3 deprivation (FL5.12/Bcl-xL cells)	cellular ATP levels (HeLa cells)	effect on interaction between splicing factors [2]
CC(C)C(C(=O)O)N1C(=O)C(=Cc2ccc(Br)cc2)SC1=S (stereo in doubt) [BH3I-1]	induced cytochrome c release	direct contact between BH3I-1 and these residues	lower than the fluorescence polarization assay derived Ki value of BH3I-2	BH3I-1>BH3I-1′>BH3I-1″>BH3I-1′″	cellular ATP levels decreased	significantly increased upon IL-3 deprivation	cellular ATP levels decreased	Neither BH3I-1 nor BH3I-2 affected the interaction
CC(C)C(C(=O)O)N1C(=O)/C(=C/c2ccccc2)SC1=S (centres unmarked) [BH3I-1″]				BH3I-1>BH3I-1′>BH3I-1″>BH3I-1′″				
O=C(Nc1cc(S(=O)(=O)c2ccc(Cl)cc2)ccc1Cl)c1cc(Cl)cc(Br)c1O [BH3I-2]	induced cytochrome c release				cellular ATP levels decreased	significantly increased upon IL-3 deprivation	cellular ATP levels decreased	Neither BH3I-1 nor BH3I-2 affected the interaction
